Measurements: patent US20250074981A1, “COMBINATION THERAPY WITH DEXAMETHASONE AND TUMOR-SPECIFIC T CELL ENGAGING MULTI-SPECIFIC ANTIBODIES FOR TREATING CANCER” (MEMORIAL SLOAN-KETTERING CANCER CENTER, priority 2021, published 2025)
Where two headings read alike, the source gives them in different places.

Tests used:
M37 breast cancer PDX = assay: In vivo anti-tumor effect in M37 breast cancer PDX; set-up: species or system mice; details: low and intermediate dosage of dexamethasone; due to diarrhea from C. difficile infection
Protocol: Increasing dosage of dexamethasone was tested as a premedication administered i.p. before the i.v. injection of HER2×CD3-BsAb plus activated human T cells in mice xenografted s.c. with M37 breast cancer PDX using the schedule detailed in FIG. 9A. The three dosages of intraperitoneal dexamethasone were 2 mg/kg (Dex 2), 8 mg/kg (Dex 8) and 32 mg/kg (Dex 32) once a week×3 weeks.

GD2(+) osteosarcoma PDX = assay: Bioluminescence imaging of Luc(+) GD2-EATs in GD2(+) osteosarcoma PDX; assay type: in vivo, mice; details: GD2-EATs plus HD dexamethasone
Protocol: (§1) T cells isolated from peripheral blood were stimulated with Dynabeads™ Human T-Activator CD3/CD28 for 24 hours. T cells were transduced with retroviral constructs containing tdTomato and click beetle red luciferase in RetroNectin-coated 6-well plates in the presence of IL-2 (100 IU/ml) and protamine sulfate ([…]). Transduced T cells were cultured for 8 days before being used in animal experiments.
(§2) Mice were anesthetized and imaged after intravenous injection of 3 mg of D-luciferin (Gold Biotechnology, St. Louis, MO) on different days post T cell injection. Images were acquired using IVIS Spectrum CT In Vivo Imaging System (Caliper Life Sciences, Waltham, MA). Bioluminescence images were overlaid with photographs, and regions of interest (ROI) were drawn based on the location and contour of tumor using Living image 2.60 (Xenogen, Alameda, CA). The total counts of photons (photon/s) were obtained. Bioluminescence signals (total flux, photon/s) before T cell injection were used as baselines.

hVEGF = assay: Serum VEGF levels by Quantikine ELISA, HGSOC1 ovarian cancer PDX mice; assay type: in vivo, human; details: day 5 post-treatment, 48 hours after 2nd dose; with HER2-EATs
Protocol: Concentration of VEGF serum levels were measured using a commercially available enzyme-linked immunosorbent assay (ELISA) kit (R&D Systems, Minneapolis, MN) according to the manufacturer's instruction. Briefly, serum samples and standards were incubated for 2 hours in a microplate pre-coated with human or murine anti-VEGF monoclonal antibodies. After washing three times, enzyme-linked anti-VEGF polyclonal antibodies were added. Unbound antibodies were removed by washing. […] All samples were run in triplicate, and a standard curve was established for each assay. The sensitivity of the assay was <9.0 pg/ml. Inter- and intra-assay variations were <10%.
Measurement of serum VEGF levels. Serum VEGF levels in murine plasma were measured using Quantikine enzyme-linked immunosorbent assay (ELISA) kit (R and D Systems Cat #DVE00, RRID:AB_2800364) according to the manufacturer's instruction. […] All samples were run in triplicate, and a standard curve was established for each assay.

neuroblastoma PDXs = assay: Flow cytometry of tumor infiltrating myeloid cells and lymphocytes in neuroblastoma PDXs; assay type: in vivo, mice; details: day 10 post-treatment
Description: (§3) For blood and tumor samples from mice, the following antibodies were purchased from Biolegend: anti-human CD45-APC (HI30), anti-human CD3-Percp/Cy5.5 (SK7), anti-human CD8-FITC, anti-human CD4-PE/Cy7, anti-mouse CD45-APC, anti-mouse CD45-Brilliant Violet 711™ (30-F11), anti-mouse CD11b-Brilliant Violet 570™ (M1/70), anti-mouse Ly6G-FITC, anti-mouse Ly6C-PerCP/Cy5.5, and anti-mouse F4/80-PE/Cy7. Statistical analysis
(§4) Flow cytometry analysis. For flow cytometry analyses of blood and tumor samples from mice, the following antibodies were purchased from Biolegend: anti-human CD45-APC (HI30), anti-human CD3-Percp/Cy5.5 (SK7), anti-human CD8-FITC, anti-human CD4-PE/Cy7, anti-mouse CD45-Brilliant Violet 711™ (30-F11), anti-mouse CD11b-Brilliant Violet 570™ (M1/70), anti-mouse Ly6G-FITC, anti-mouse Ly6C-PerCP/Cy5.5, and anti-mouse F4/80-PE.

tumor microvasculature = assay: IHC of intratumoral blood vessels (mCD31) and HIF-1α in neuroblastoma PDXs; assay type: in vivo, mice
Protocol: (§5) Immunohistochemistry and immunofluorescence staining. Immunohistochemistry (TIC) staining were performed at the MSK Molecular Cytology Core Facility using Discovery XT processor (Ventana Medical Systems). Tumor samples were fixed and embedded in paraffin. Anti-human CD45, anti-human CD3, anti-human CD4, anti-human CD8, anti-mouse CD31 antibodies were used, which was followed by biotinylated secondary antibody. The detection was performed using a DAB detection kit (Ventana Medical Systems) or Alexa Fluor™ 488 or 568 Tyramide Reagent (Invitrogen). IHC images were captured from tumor sections using a Nikon ECLIPSE Ni-U microscope and NIS-Elements 4.0 imaging software. Antigen positive cells were counted with Qupath 0.1.2 or using positive pixel count analysis.
Positive Pixel Count Analysis. IHC slides were scanned (Aperio ScanScope XT) and analyzed by comparing positive pixel counts (Aperio Technologies). For analyzing tumor infiltrating lymphocytes, the largest area of intact tumor tissue was included, and oblique sections were avoided. […] After positive pixel count analysis was run, analyzed slides were examined to confirm that positively identified pixels were consistent with lymphocyte staining and not background staining. Percentages were calculated as the total number of positive pixels divided by the total number of pixels (% positive pixels/total pixels).

[1] = system: osteosarcoma cell line 143B xenografts; assay type: in vivo, mice; details: agents added to GD2-EATs, vs GD2-EATs alone
Protocol: Immunohistochemistry (IHC) and immunofluorescence (IF) staining were performed at the MSK Molecular Cytology Core Facility using Discovery XT processor (Ventana Medical Systems, Oro Valley, AZ) as described by Xu H, et al., Cancer Immunol Res 3: 266-277 (2015), the entirety of which is incorporated herein by reference. Tumor samples were fixed and embedded in paraffin. Anti-human CD45, anti-human CD3, and anti-mouse CD68 antibodies were used, which was followed by biotinylated secondary antibody. The detection was performed using a DAB detection kit (Ventana Medical Systems, Oro Valley, AZ) or Alexa Fluor™ 488 or 568 Tyramide Reagent (Invitrogen, Carlsbad, CA). IHC images were captured from tumor sections using a Nikon ECLIPSE Ni-U microscope and NIS-Elements 4.0 imaging software. IF images were captured using Leica Inverted Confocal SP8 and processed with Imaris (Bitplane, Zurich, Switzerland). Antigen positive cells were counted with Qupath 0.1.2.
Immunohistochemistry and immunofluorescence staining. Immunohistochemistry (TIC) staining were performed at the MSK Molecular Cytology Core Facility using Discovery XT processor (Ventana Medical Systems). Tumor samples were fixed and embedded in paraffin. […] Antigen positive cells were counted with Qupath 0.1.2 or using positive pixel count analysis.

[2] = system: osteosarcoma cell line 143B xenografts; assay: In vivo anti-tumor effect against osteosarcoma cell line 143B xenografts
Protocol: All animal procedures were performed in compliance with Memorial Sloan Kettering Cancer Center's institutional Animal Care and Use Committee (IACUC) guidelines. BALB/c Rag2^−/−IL-2Rγc^−/− (BRG) mice were used in this study. Target antigen (+) patient-derived xenograft (PDX) was established from fresh surgical specimens with MSKCC IRB approval. Tumor cells in Matrigel (Corning Corp, Corning, NY) were implanted subcutaneously on the right flank of each mouse. Tumor size was measured using handheld Peira TM900 imaging device (Piera, Brussels, BE). Tumor growth curves and overall survival was analyzed, and the overall survival was defined as the time from start of treatment to when tumor volume reached 2000 mm^3. To define the well-being of mice, CBC analyses, changes in body weight, behavior and physical appearance were monitored. All animal experiments were repeated twice more with different donor's T cells to ensure that the results were reliable.
In vivo anti-tumor effect was compared by area under curve (AUC) and survival curves, which were calculated. Differences between samples indicated in the figures were tested for statistical significance by two-tailed Student's t-test for two sets of data while one-way ANOVA with Tukey's post hoc test was used to among three or more sets of data. […]
Therapeutic study with mouse xenograft model All animal procedures were performed in compliance with Memorial Sloan Kettering Cancer Center's institutional Animal Care and Use Committee (IACUC) guidelines. […] Treatment was initiated after tumors were established, average tumor volume of 100 mm^3 when measured using TM900 scanner (Piera, Brussels, BE). […] Tumor growth curves and overall survival were analyzed, and the overall survival was defined as the time from start of treatment to when tumor volume reached 2000 mm^3. To define the well-being of mice, CBC analyses, changes in body weight, behavior and physical appearance were monitored. […]
Statistical analysis. […] Area under curves (AUCs) of tumor growth were calculated and compared among groups. […]

[3] = system: HER2(+) osteosarcoma PDXs, HGSOS; assay: Bioluminescence imaging of Luc(+) HER2-EATs in HER2(+) osteosarcoma PDX (HGSOS / HGSOC1); assay type: in vivo, mice; details: control HER2-EATs
Protocol: as §1, §2
T cell transduction. T cells isolated from peripheral blood were stimulated with Dynabeads™ Human T-Activator CD3/CD28 for 24 hours. T cells were transduced with retroviral constructs containing tdTomato and click beetle red luciferase in RetroNectin-coated 6-well plates in the presence of IL-2 (100 IU/ml) and protamine sulfate (4 μg/mL). […]

[4] = system: neuroblastoma patient-derived xenografts; assay: IHC positive pixel count analysis of CD3, CD4, CD8 T cells in neuroblastoma PDXs; assay type: in vivo, mice; details: day 10 post-treatment; added to GD2-EATs
Protocol: as §5
Positive Pixel Count Analysis. IHC slides were scanned (Aperio ScanScope XT) and analyzed by comparing positive pixel counts (Aperio Technologies). For analyzing tumor infiltrating lymphocytes, the largest area of intact tumor tissue was included, and oblique sections were avoided. Each slide was visually inspected to ensure specificity and sensitivity of antibody staining. After positive pixel count analysis was run, analyzed slides were examined to confirm that positively identified pixels were consistent with lymphocyte staining and not background staining. Percentages were calculated as the total number of positive pixels divided by the total number of pixels (% positive pixels/total pixels).

[5] = system: osteosarcoma cell line 143B xenografts; assay type: in vivo, mice; details: day 60 post-treatment, agents added to GD2-EATs, vs GD2-EATs alone
Description: as §3, §4

[6] = system: TH1 cell cytokines (IL-2, IFN-γ, and TNF-α); assay: TH1 cell cytokine levels after GD2-EATs with VEGF blockades, neuroblastoma PDX mice; assay type: in vivo; details: 2 hours after the first dose of GD2-EATs; combination group
Protocol: Cytokine release assays. EAT-induced human cytokine release was analyzed in vitro and in vivo. Human Th1 cell released cytokines were analyzed by LEGENDplex™ Human Th1 Panel (Biolegend, Cat #741035). Five T cell cytokines including IL-2, IL-6, IL-10, IFN-γ and TNF-α were analyzed using mouse serum after treatment with EATs with or without VEGF blockade.

[7] = system: red blood cell, leukocyte, or platelet counts; assay: Complete blood count after GD2-EATs with VEGF blockades, neuroblastoma PDX mice; assay type: in vivo; details: GD2-EATs following bevacizumab or DC101
Protocol: To test if VEGF blockades affected complete blood cell counts (CBC) or frequencies of tumor infiltrating myeloid cells (TIMs), CBC and flow cytometry analysis of tumors were done after the first and third doses of GD2-EATs following bevacizumab or DC101. […] The effect on TIMs was also analyzed using flow cytometry of tumors. […] TIM analysis in a second tumor model was repeated using 143B CDXs where blood and tumors were analyzed on day 5 and day 60 post treatment, respectively.

GD2(+) neuroblastoma PDX = assay: Bioluminescence imaging of Luc(+) GD2-EATs in GD2(+) neuroblastoma PDX; assay type: in vivo, mice
Protocol: T cell transduction. T cells isolated from peripheral blood were stimulated with Dynabeads™ Human T-Activator CD3/CD28 for 24 hours. T cells were transduced with retroviral constructs containing tdTomato and click beetle red luciferase in RetroNectin-coated 6-well plates in the presence of IL-2 (100 IU/ml) and protamine sulfate (4 μg/mL). Transduced T cells were cultured for 8 days before being used in animal experiments.
as §2, with “Bioluminescence imaging. Mice” for “Mice”, “Biotechnology)” for “Biotechnology, St. Louis, MO)”, “vivo” for “Vivo”, “Sciences).” for “Sciences, Waltham, MA).”, “(Xenogen).” for “(Xenogen, Alameda, CA).”

[8] = agent added to GD2-EATs, compared to GD2-EATs alone

C[C@@H]1C[C@H]2[C@@H]3CCC4=CC(=O)C=C[C@]4(C)[C@@]3(F)[C@@H](O)C[C@]2(C)[C@@]1(O)C(=O)CO [dexamethasone]
weight loss (M37 breast cancer PDX): suffered weight loss around day 30 post treatment | mean signal intensity on day 5 vs GD2-EATs alone (GD2(+) osteosarcoma PDX): more than 10 times

bevacizumab: anti-human VEGF (hVEGF) antibody bevacizumab
serum h-VEGF levels (hVEGF): significantly reduced serum h-VEGF levels | frequencies of intratumoral hCD45(+) T cells (neuroblastoma PDXs): much more pronounced | high endothelial venules (HEVs) in tumors (tumor microvasculature; combined with GD2-EATs): induced high endothelial venules (HEVs) in tumors | mCD31(+) blood vessels (tumor microvasculature; day 10 post-treatment): significant increase in mCD31(+) blood vessels | CD3+ T cell infiltration / count in tumors (IHC) [1]: significantly increased | CD3+ T cell infiltration / count in tumors (IHC) ([1]; listed as anti-VEGF): significantly increased T cell count | anti-tumor effect ([2]; VEGF blockade with unarmed T cells): did not show any anti-tumor effect | survival [2, 8]: prolonging mouse survival | tumor control / anti-tumor response [2, 8]: significantly improved | Fold increase in BLI (AUC-BLI) [3]: 7.5 | CD4(+) TIL increase compared to GD2-EATs alone [4]: 1.1 fold | CD8(+) TIL increase compared to GD2-EATs alone [4]: 5 fold | increase of CD3(+) TILs compared to GD2-EATs alone [4]: 3 fold | tumor infiltrating hCD45(+) and CD8(+) T cells (TILs) [5]: significantly increased | tumor infiltrating hCD45(+) and CD8(+) T cells (TILs) ([5]; listed as anti-VEGF): increased frequencies of tumor infiltrating hCD45(+) T cells and CD8(+) T cells | TH1 cell cytokines (IL-2, IFN-γ, and TNF-α) [6]: significantly lower | red blood cell, leukocyte, or platelet counts [7]: no significant changes | TIL persistence (GD2(+) neuroblastoma PDX; added to GD2-EATs): significantly prolonging TIL persistence | Fold increase in BLI (AUC-BLI) (GD2(+) neuroblastoma PDX; neuroblastoma PDX, control GD2-EATs): 2.8
